Test results reported in patent US12138300B2, “Methods and compositions for inducing neural plasticity” (CASE WESTERN RESERVE UNIVERSITY, priority 2018, dated 2024).

Columns and labels:
stroke mice [1] = assay: Survival of stroke mice after tMCAO with post-stroke treatment; format: in vivo, mouse
Experimental: First, the efficacy of post-stroke ISP treatment in the C57BL/6 mouse was tested using a proximal middle cerebral artery occlusion (pMCAO) model. Three cohorts of mice (n=59) were subjected to MCAO surgery to induce a large stroke in both striatal and cortical tissue, mimicking a human “malignant” stroke, which tends to be fatal in humans. Stroke mice were subjected to T2 weighted MRI scanning to determine the size of the stroke injury and were grouped blindly into two equally distributed groups that received either daily vehicle (5% DMSO) or daily ISP (20 μg/mouse/day or 30 μg/mouse/day S.C. injections) treatment starting from 24 hours after stroke onset for 6 weeks.
Transient middle cerebra artery occlusion (tMCAO) was induced in male C57BL/6 mice (12 weeks old, 25-30 g) by intraluminal occlusion of the left MCA for 45 min with silicone rubber-coated monofilament (Cat. 602212PK10Re and 602312PK10Re, Doccol Corporation). Briefly, mice were anesthetized with isoflurance. Body temperature was monitored and maintained at 37±0.5° C. by homeothermic blanket control unit (Harvard apparatus). To minimize animal's pain, mice were subcutaneously injected with buprenorphine. […] To ensure consistent and successful blockage of MCA, regional cerebral blood flow was monitored in all stroke animals by Laser Doppler flowmetry (PeriFlux system 5000, Perimed, Sweden). […]

stroke mice [2] = assay: Computer automated open field locomotion analysis in stroke mice; format: in vivo, mouse
Experimental: First, the efficacy of post-stroke ISP treatment in the C57BL/6 mouse was tested using a proximal middle cerebral artery occlusion (pMCAO) model. Three cohorts of mice (n=59) were subjected to MCAO surgery to induce a large stroke in both striatal and cortical tissue, mimicking a human “malignant” stroke, which tends to be fatal in humans. […]
To test the timing of ISP administration relative to the time of injury, and the corresponding effect on recovery, adult C57bl/6J female and male mice were subjected to transient proximal MCAO surgery (35 min) as described above. […]
Mice motor activities were assessed using Accuscan activity monitor (Columbus, OH, USA) one day before and 3, 7, 14, 21, 35 and 42 days after tMCAO as previously described. […] To avoid observer bias, this locomotor test was automatically monitored by the computer and software. Locomotor activity was calculated by automated Versamax software (Accuscan, Columbus, OH, USA). The following variables were measured: (A) horizontal activity (the total number of beam interruptions that occurred in the horizontal sensors); (B) total distance traveled (cm, the distance traveled by the animals); (C) Vertical activity (the total number of beam interruptions that occurred in vertical sensors).

stroke mice [3] = assay: Adhesive removal test (sensorimotor function) in stroke mice; format: in vivo, mouse; conditions: post-stroke treatment
Experimental: This test was performed on days 7, 14, 21, 28, 35 and 42 post-stroke in order to examine the sensorimotor deficits. Each mice was placed into transparent cylinder (15 cm diameter) during a habituation period of 1 min Thereafter, two different colored adhesive labels (2.5 mm diameter made by punch, Tough Spots) were applied with equal pressure on each mouse's forepaw. The times required to remove the adhesive labels were measured with a maximum of 2 min. To achieve an optimum level of performance, mice should be trained for 4 days before surgery.

stroke mice [4] = assay: Barnes maze test (cognitive function) in stroke mice; format: in vivo, mouse; conditions: 4 weeks after stroke; vs vehicle
Text: The spatial memory of ischemic mice was examined using Barnes maze (Stoelting Company, WoodDale, IL, USA) 28 days after tMCAO. The maze consists of a 91.5 cm diameter circular platform with 20 holes around the perimeter. Mice were discouraged to idle around aimlessly by blowing fans and a bright light above the platform. At day 0, mice were gently guided to enter the target hole after removing the start chamber. At day 1, mice were trained for 4 trials in 2 sessions to find the escape tunnel placed under the target hole. Once mice entered the target hole, the hole was covered and mice were allowed to stay in it for 2 min. If mice could not locate the target hole within 5 min, mice were guided by the observer to enter the target hole. At day 2, one trial was run and video-taped until the mouse getting into the target hole or stopped at 5 mins when the mouse could not locate the target hole. Time spent to locate the escaping hole and error numbers in finding the hiding hole made by the mouse were measured by an observer in a blinded fashion.

stroke mice [5] = assay: Quantification of brain atrophy in stroke animals; format: in vivo, mouse; conditions: post-stroke 6-week brain sections
Experimental: The post-stroke 6-week brain sections (25 μm) were mounted on PLL-coated slides. The sections were rehydrated in KH2PO4 buffer (pH 4.5) for 10 min, and then stained in pre-warm 10% Giemsa solution for 30 min at 42° C. After a brief rinse with KH2PO4 buffer, sections were dehydrated in absolute ethanol, cleared in xylene and mounted with Histoseal. A set of serial sections was imaged by Path Scan Enabler IV slide scanner. Contralateral and ipsilateral brain areas were quantified using ImageJ software. The calculation formula of atrophy rate is as follows: Σ (contralateral brain area−ipsilateral brain area)/Σ contralateral brain area×100%.

stroke mice [6] = assay: DCX+ neuroblast formation in post-stroke mice; format: in vivo, mouse; conditions: post-stroke treatment; vs vehicle
stroke mice [7] = assay: Anterograde BDA tracing and quantification of corticospinal tract axonal sprouting; format: in vivo, mouse; conditions: post-stroke treatment; crossed CST fibers at cervical spinal cord, BDA tracing
Experimental: Four weeks after tMCAO, mice were anesthetized with 1.5% isoflurane/oxygen mixture and stabilized in a stereotaxic frame. 1.5 μl of the biotin dextran amine (BDA, MW10,000; 10% in PBS, invitrogen) were injected at three sites in the contralesional cortex (coordinates: 1. A/P 0.0 mm, M/L −2 mm, D/V −1 mm; 2.A/P 0.5 mm, M/L-1.5 mm, D/V-1 mm; 3. A/P 0.5 mm, M/L −2 mm, D/V −1 mm) Two weeks later, brain and cervical spinal cord were harvested after cardiac perfusion with PBS followed by 4% paraformaldehyde. After post-fix overnight in 4% paraformaldehyde and cryoprotection in 20% and 30% sucrose, coronal brain sections and transverse spinal cord sections were cut at 30 μm thickness. For the detection of BDA, sections were rinsed in 0.1M PB and incubated in 0.3% H2O2 for 30 min to inactivate endogenous peroxidase, followed by incubation for 2 hours with a Vectastain® ABC kit (Vector Laboratories, Burlingame, CA, USA). Staining was developed with 2,3′ diaminobenziine tetrahydrochloride (0.5 mg/ml in 0.1M PB). The number and length of midline-cross BDA+ fiber were assessed in a blinded manner Sections were analyzed with ImageJ software.

adult NSCs = assay: Migration of neural stem cells on CSPGs (aggrecan coating); format: cell-based, mouse; conditions: 2.5 μM peptide, 21 hours, with or without aggrecan coating
Text: Primary stem cells were obtained from C57BL/6J mice at 5 weeks of age. After euthanization, whole brains were immediately harvested and dissected under microscope to obtain the subventricular zone (SVZ) tissue. After mechanical dissociation with a stab knife, the tissue fragment were processed using trypsin and resuspended as individual cells at a density of 10^4 cell/cm^2 in neurobasal media with growth factors (epidermal growth factor and basic fibroblast growth factor) (NBM-GF). Subsequent passaging of cells were performed using Accutase® (innovative #AT-104, CA, USA) every 7 days until the cells established viable lines, and cellular debris was naturally diminished after each passage. At day 4 of each passage, the proliferating spheres were fed with NBM-GF. We used neurospheres at passage P3-P8 in this study.
To determine the effects of CSPGs on the migration of neural stem cells in vitro, flat-bottom 48-well plates were first coated with poly-L-lysine overnight, followed by a rinsing with water. Aggrecan (A1960, sigma) were coated onto the 48-well plates at the concentration of 1 ug/ml and 10 ug/ml diluted in sterile water overnight, followed by a rinsing with water. The control wells contained poly-L-lysine alone. […] The inner area and total area of neurospheres were measured by ImageJ software. […]

WT primary NSCs = assay: Neural stem cell differentiation assay, neurite outgrowth (MAP2 immunostaining); format: cell-based, mouse; conditions: 2.5 μM peptide, differentiated in vitro for 5 days
Experimental: Briefly, glass coverslips in an untreated 24-well plate were coated with poly-ornithine and laminin After splitting neurospheres during passaging, individual cells were plated at a density of 10^4 cells/cm^2 in 500 μl of NBM-GF. Every other day, 250 μl of media was removed from each well and 300 μl of fresh NBM-GF was added. When the attached cell reached approximately 70% confluency (around day 5), all NBM-GF within each well was gently removed and immediately replaced with neurobasal media without growth factor (NBM) with ISP peptide (2.5 μM) or scramble peptide (2.5 μM). Each well was fed daily by removing 250 μl of the media and adding 300 μl of the media containing ISP or scramble peptide. On Day 5 after complete replacement of the NBM-GF, the wells were fixed with 4% paraformaldehyde for 15 min at room temperature and stored in phosphate-buffered saline at 4° C. until staining.
Cells cultured on coverslip were fixed in 4% PFA for 15 min, permeabilized in 0.1% Triton-X100 for 10 min and then incubated in 10% normal goat serum for 1 hour. […] Three coverslips were analyzed per condition. Random selections of field in each coverslip were chosen and imaged by Stereo Investigator Software (MBF Bioscience, Williston, VT, USA), and quantitative data was obtained by using NIH ImageJ software.

Row | Sequence | survival of stroke animals over time (stroke mice [1]; continuous post-stroke treatment started 24 hours post-stroke, tMCAO mice, vehicle 44.828%) [%] | survival rate of stroke animals (stroke mice [1]; treatment initiated at 24 hours post stroke, daily S.C., vs vehicle) | locomotor function (total distance travelled, total horizontal activity, total vertical activity) (stroke mice [2]; treatment from 24 h post-stroke, 2-4 weeks after stroke, vs vehicle) | open field locomotion performance (total distance, horizontal activity, vertical activity), delayed treatment (stroke mice [2]; treatment initiated 7 days post stroke, 1 mg/kg/day for 3 weeks, by week four) | speed of tape removal, affected limb (stroke mice [3]; affected front paw, vs vehicle) | tape removal, unaffected limb (stroke mice [3]; unaffected front paw) | error trials to find the escape hole in the Barnes maze (stroke mice [4]) | time to find the escape hole in the Barnes maze (stroke mice [4]) | chronic atrophy of brain after stroke (stroke mice [5]) | DCX+ neuroblasts near the lateral ventricle and adjacent striatal tissues (stroke mice [6]) | axonal sprouting from contralateral corticospinal tract (stroke mice [7]) | migration of adult NSCs (normalized migration index) (adult NSCs) | neurite outgrowth (neurite length) in differentiated NSCs (WT primary NSCs)
1 | GRKKRRQRRRCDMAEHMERLKANDSLKLSQEYESI [ISP] | 67.742 | improve the survival rate of stroke animals significantly | significantly increased | significant effects in improved performance | significantly improved the speed | without any obvious effects | less error trials | significantly less time | decreases the chronic atrophy of brain | enhanced | enhanced | alleviates the inhibition of CSPGs on NSCs migration | consistently increased neurite outgrowth
2 | GRKKRRQRRRCIREDDSLMLYALAQEKKESNMHES [scrambled ISP peptide, reference compound] |  |  |  |  |  |  |  |  |  |  |  |  | no effects
